In this experiment the test system is CD8F1 mice, subcutaneous mammary adenocarcinoma, T/C%. The experiment in a line: NCI In Vivo Anticancer Drug Screen. Data for tumor model Mammary Adenocarcinoma CD8F1 (subcutaneous) in CD8F1. The conditions noted are these: higher = larger tumour. Here is the method: The antitumor activity of compounds was measured in mice bearing transplantable tumors. Survival or tumor size were measured and the results are expressed as the measurement made in the treated group (T) divided by the measurement made in the vehicle treated control group (C). The tumor model used in this assay is Mammary Adenocarcinoma CD8F1 (subcutaneous) in CD8F1

Setting [1] is: endpoint: median tumor weight (est.), dose: 25.0 mg/kg/injection, schedule: Q07DX005 (ip), vehicle: saline with Tween-80.
The mark [2] stands for this setting: endpoint: median tumor weight (est.), dose: 50.0 mg/kg/injection, schedule: Q07DX005 (ip), vehicle: saline with Tween-80.
Where [3] appears, read: endpoint: median tumor weight (est.), dose: 100.0 mg/kg/injection, schedule: Q07DX005 (ip), vehicle: saline with Tween-80.
Setting [4] is: endpoint: median tumor weight (est.), dose: 200.0 mg/kg/injection, schedule: Q07DX005 (ip), vehicle: saline with Tween-80.
Where [5] appears, read: endpoint: median tumor weight (est.), dose: 400.0 mg/kg/injection, schedule: Q07DX005 (ip), vehicle: saline with Tween-80.
Where [6] appears, read: endpoint: median tumor weight change, dose: 62.5 mg/kg/injection, schedule: Q01DX001 (ip), vehicle: saline with Tween-80.
Where [7] appears, read: endpoint: median tumor weight change, dose: 125.0 mg/kg/injection, schedule: Q01DX001 (ip), vehicle: saline with Tween-80.
[8] abbreviates: endpoint: median tumor weight change, dose: 250.0 mg/kg/injection, schedule: Q01DX001 (ip), vehicle: saline with Tween-80.
Setting [9] is: endpoint: median tumor weight change, dose: 500.0 mg/kg/injection, schedule: Q01DX001 (ip), vehicle: saline with Tween-80.

Where “and” joins values, the source holds several entries; their conditions need not be identical. Equal values may be shown once. Records with an inconclusive call do not appear.

As to `CC(=O)Oc1ccc[nH]c1=O`, the T/C was 68 % of control under setting [1]; 88 % of control under setting [2]; 93 % of control under setting [3]; 102 % of control under setting [4]; 118 % of control under setting [5]; 54 % of control (endpoint: median tumor weight (est.), dose: 800.0 mg/kg/injection, schedule: Q07DX005 (ip), vehicle: saline with Tween-80).

In the case of `CCC(=O)N(C)[C@@H](C)C(=O)O[C@H]1CC(=O)N(C)c2cc(cc(OC)c2Cl)C/C(C)=C/C=C[C@@H](OC)[C@@]2(O)C[C@H](OC(=O)N2)[C@@H](C)[C@@H]2O[C@@]12C`, the T/C reads like this: (endpoint: median tumor weight (est.), dose: 7.5 micrograms/kg/injection, schedule: Q07DX005 (ip), vehicle: saline + alcohol) 210 % of control; (endpoint: median tumor weight (est.), dose: 15.0 micrograms/kg/injection, schedule: Q07DX005 (ip), vehicle: saline + alcohol) 112 % of control; (endpoint: median tumor weight (est.), dose: 30.0 micrograms/kg/injection, schedule: Q07DX005 (ip), vehicle: saline + alcohol) 84 % of control; (endpoint: median tumor weight (est.), dose: 60.0 micrograms/kg/injection, schedule: Q07DX005 (ip), vehicle: saline + alcohol) 98 % of control.

In the case of `O=C(Nc1cccc(Cl)c1)ON1C(=O)C2C(C1=O)C1(Cl)C(Cl)C(Cl)C2(Cl)C1(Cl)Cl` (stereo not drawn), the T/C reads like this: under setting [6], 112 % of control; under setting [7], 112 % of control; under setting [8], 95 % of control.

Consider `CC(=O)OC1=NC(C)c2c1cc(OC(C)=O)[nH]c2=O` (stereo not drawn), for which the T/C was 86 % of control (endpoint: median tumor weight (est.), dose: 12.5 mg/kg/injection, schedule: Q07DX005 (ip), vehicle: Klucel (hydroxypropylcellulose) (HPC)); 168 % of control (endpoint: median tumor weight (est.), dose: 25.0 mg/kg/injection, schedule: Q07DX005 (ip), vehicle: Klucel (hydroxypropylcellulose) (HPC)); 111 % of control (endpoint: median tumor weight (est.), dose: 50.0 mg/kg/injection, schedule: Q07DX005 (ip), vehicle: Klucel (hydroxypropylcellulose) (HPC)).

For `N#CC(=C1C=CC(=NO)C=C1)c1ccc(Cl)cc1`, the T/C runs as follows: (endpoint: mean tumor weight, dose: 100.0 mg/kg/injection, schedule: Q07DX006 (ip), vehicle: saline with Tween-80) 36 % of control and 52 % of control; (endpoint: mean tumor weight, dose: 200.0 mg/kg/injection, schedule: Q07DX006 (ip), vehicle: saline with Tween-80) 19 % of control and 26 % of control; (endpoint: mean tumor weight, dose: 400.0 mg/kg/injection, schedule: Q07DX006 (ip), vehicle: saline with Tween-80) 7 % of control and 10 % of control; under setting [1], 98 % of control; under setting [2], 63 % of control; under setting [3], 58 % of control. Further, the T/C reads like this: under setting [4], 57 % of control; under setting [5], 36 % of control; under setting [6], 92 % of control; under setting [7], 88 % of control; under setting [8], 70 % of control; under setting [9], 28 % of control. Besides, the T/C (endpoint: median tumor weight change, dose: 1000.0 mg/kg/injection, schedule: Q01DX001 (ip), vehicle: saline with Tween-80) was 26 % of control.

For the compound `NC(C(=O)O)c1ccc(CBr)cc1` (stereo not drawn), the T/C under setting [7] was 106 % of control.

As to `CO[C@H](C(=O)[C@@H](O)[C@@H](C)O)[C@@H]1Cc2cc3cc(OC4CC(OC5CC(O)C(O)C(C)O5)C(O)C(C)O4)c(C)c(O)c3c(O)c2C(=O)[C@H]1OC1CC(OC2CC(OC3CC(C)(O)C(O)C(C)O3)C(O)C(C)O2)C(O)C(C)O1` (stereo partly drawn), the T/C reads like this: (endpoint: median tumor weight (est.), dose: 0.25 mg/kg/injection, schedule: Q07DX006 (ip), vehicle: saline) 76 % of control; (endpoint: median tumor weight (est.), dose: 0.5 mg/kg/injection, schedule: Q07DX006 (ip), vehicle: saline) 104 % of control; (endpoint: median tumor weight (est.), dose: 1.0 mg/kg/injection, schedule: Q07DX006 (ip), vehicle: saline) 78 % of control.

Turning to `CN(C)C1C(=O)C(C(=O)NP(=O)(NCCCO)N(CCCl)CCCl)=C(O)C2(O)C(=O)C3=C(O)c4c(O)cccc4C(C)(O)C3CC12` (stereo not drawn), the T/C is, setting by setting: under setting [8], 46 % of control and 69 % of control; under setting [9], 21 % of control.

Regarding `O=c1[nH]cccc1O`, the T/C is 60 % of control under setting [7] and 35 % of control under setting [8].

Regarding `O=C(O)C1CSCN1` (stereo not drawn), the T/C reads like this: (endpoint: median tumor weight change, dose: 12.5 mg/kg/injection, schedule: Q01DX001 (ip), vehicle: water) 79 % of control; (endpoint: median tumor weight change, dose: 25.0 mg/kg/injection, schedule: Q01DX001 (ip), vehicle: water) 111 % of control; (endpoint: median tumor weight change, dose: 50.0 mg/kg/injection, schedule: Q01DX001 (ip), vehicle: water) 173 % of control; (endpoint: median tumor weight change, dose: 100.0 mg/kg/injection, schedule: Q01DX001 (ip), vehicle: water) 90 % of control; (endpoint: median tumor weight change, dose: 200.0 mg/kg/injection, schedule: Q01DX001 (ip), vehicle: water) 59 % of control.

Consider `O=C1NCCN1c1ncc([N+](=O)[O-])s1`, for which the T/C (endpoint: mean tumor weight, dose: 100.0 mg/kg/injection, schedule: Q07DX005 (ip), vehicle: saline) was 121 % of control; the T/C (endpoint: mean tumor weight, dose: 200.0 mg/kg/injection, schedule: Q07DX005 (ip), vehicle: saline) was 89 % of control; the T/C (endpoint: mean tumor weight, dose: 400.0 mg/kg/injection, schedule: Q07DX005 (ip), vehicle: saline) is 101 % of control.

Take `O=C(O)O`: the T/C is, setting by setting: (endpoint: median tumor weight (est.), dose: 50.0 mg/kg/injection, schedule: Q07DX005 (ip), vehicle: saline) 104 % of control; (endpoint: median tumor weight (est.), dose: 400.0 mg/kg/injection, schedule: Q07DX005 (ip), vehicle: saline) 72 % of control and 55 % of control.

Take `[Cl][Pt+2][Cl].[NH-]CC1(C[NH-])CCC1`: the T/C (endpoint: median tumor weight change, dose: 12.5 mg/kg/injection, schedule: Q01DX001 (ip), vehicle: suspension in saline) is 79 % of control.

For the compound `CN(Cc1cnc2nc(N)nc(N)c2n1)c1ccc(C(=O)N[C@@H](CCC(=O)O)C(=O)O)cc1`, the T/C was 192 % of control (endpoint: mean tumor weight (est.), dose: 20.0 mg/kg/injection, schedule: Q07DX006 (ip), vehicle: sodium bicarbonate); 91 % of control (endpoint: mean tumor weight (est.), dose: 75.0 mg/kg/injection, schedule: Q07DX004 (ip), vehicle: sodium bicarbonate); 90 % of control (endpoint: mean tumor weight (est.), dose: 100.0 mg/kg/injection, schedule: Q07DX004 (ip), vehicle: sodium bicarbonate); 84 % of control (endpoint: mean tumor weight, dose: 2.0 mg/kg/injection, schedule: Q01DX009 (ip), vehicle: saline); 234 % of control (endpoint: mean tumor weight, dose: 2.0 mg/kg/injection, schedule: Q01DX009 (ip), vehicle: sodium bicarbonate); 44 % of control (endpoint: mean tumor weight, dose: 4.0 mg/kg/injection, schedule: Q01DX009 (ip), vehicle: saline). The T/C was 84 % of control (endpoint: mean tumor weight, dose: 4.0 mg/kg/injection, schedule: Q01DX009 (ip), vehicle: sodium bicarbonate); 87 % of control (endpoint: mean tumor weight, dose: 12.5 mg/kg/injection, schedule: Q07DX004 (ip), vehicle: saline); 23 % of control (endpoint: mean tumor weight, dose: 25.0 mg/kg/injection, schedule: Q07DX004 (ip), vehicle: saline); 44 % of control (endpoint: mean tumor weight, dose: 25.0 mg/kg/injection, schedule: Q07DX006 (ip), vehicle: saline); 50 % of control (endpoint: mean tumor weight, dose: 50.0 mg/kg/injection, schedule: Q07DX003 (ip), vehicle: sodium bicarbonate); 26 % of control (endpoint: mean tumor weight, dose: 50.0 mg/kg/injection, schedule: Q07DX004 (ip), vehicle: saline). For the same compound, the T/C (endpoint: mean tumor weight, dose: 50.0 mg/kg/injection, schedule: Q07DX006 (ip), vehicle: saline) is 93 % of control; the T/C (endpoint: mean tumor weight, dose: 100.0 mg/kg/injection, schedule: Q07DX003 (ip), vehicle: sodium bicarbonate) was 43 % of control; the T/C (endpoint: mean tumor weight, dose: 100.0 mg/kg/injection, schedule: Q07DX006 (ip), vehicle: saline) was 56 % of control; the T/C (endpoint: mean tumor weight, dose: 150.0 mg/kg/injection, schedule: Q07DX005 (ip), vehicle: sodium bicarbonate) is 107 % of control; the T/C (endpoint: mean tumor weight, dose: 200.0 mg/kg/injection, schedule: Q07DX005 (ip), vehicle: sodium bicarbonate) is 70 % of control; the T/C (endpoint: mean tumor weight, dose: 250.0 mg/kg/injection, schedule: Q07DX005 (ip), vehicle: sodium bicarbonate) was 45 % of control. Besides, the T/C (endpoint: median tumor weight (est.), dose: 2.5 mg/kg/injection, schedule: Q07DX005 (ip), vehicle: sodium bicarbonate) was 63 % of control; the T/C (endpoint: median tumor weight (est.), dose: 5.0 mg/kg/injection, schedule: Q07DX005 (ip), vehicle: sodium bicarbonate) was 110 % of control and 111 % of control; the T/C (endpoint: median tumor weight (est.), dose: 20.0 mg/kg/injection, schedule: Q07DX005 (ip), vehicle: sodium bicarbonate) was 112 % of control; the T/C (endpoint: median tumor weight (est.), dose: 40.0 mg/kg/injection, schedule: Q07DX005 (ip), vehicle: sodium bicarbonate) was 85 % of control and 107 % of control; the T/C (endpoint: median tumor weight (est.), dose: 80.0 mg/kg/injection, schedule: Q07DX005 (ip), vehicle: sodium bicarbonate) is 20 % of control.

Consider `Cc1c2c(ccc3ccccc32)c[n+]2ccccc12`, for which the T/C runs as follows: (endpoint: median tumor weight (est.), dose: 6.25 mg/kg/injection, schedule: Q07DX005 (ip), vehicle: saline) 73 % of control; (endpoint: median tumor weight (est.), dose: 12.5 mg/kg/injection, schedule: Q07DX005 (ip), vehicle: saline) 71 % of control.

The values above are taken from PubChem BioAssay AID220 (DTP/NCI, 2004).
